Literature values, collected in US20110104272A1 (DEPOMED, INC., priority 2009, published 2011).

solubility in water (in words)	Structure (SMILES)
poorly soluble in water	CC(=O)Nc1ccc(O)cc1 [Acetaminophen, N-(4-hydroxyphenyl)acetamine]
highly soluble in water	CNC[C@H](O)c1cccc(O)c1 [Phenylephrine, (R)-3-[-1-hydroxy-2-(methylamino)ethyl]phenol]
